Assay results from patent US8299056B2 (Signal Pharmaceuticals, LLC, priority 2008, dated 2012).
pIC50: −log10 of the molar value.

target: T1, Syk (Homo sapiens, UniProt P43405); assay: Syk HTRF assay; type: biochemical; details: IC50 activity level, read-out: Activity Level
T1 construct: purchased Carna Biosciences
Outline: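 HTRF kinase assay in HEPES pH 7.6 buffer with MgCl2, DTT and Triton X100; start mix of 87.5 μM ATP and 80 nM biotinylated peptide, 1 h at room temperature. EDTA stop, then Eu-anti-phosphotyrosine/streptavidin-DyLight 647 detection, read as 665/615 nm emission ratio.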

`Cc1cc(Nc2nc3cccc(CC4CCOCC4)n3n2)cnc1N1CCOCC1` [Example 535, N-(5-methyl-6-morpholinopyridin-3-yl)-5-((tetrahydro-2H-pyran-4-yl)methyl)-[1,2,4]triazolo[1,5-a]pyridin-2-amine] and `Cc1noc2cc(Nc3nc4cccc(CC5CCOCC5)n4n3)ccc12` [Example 537, 3-methyl-N-(5-((tetrahydro-2H-pyran-4-yl)methyl)-[1,2,4]triazolo[1,5-a]pyridin-2-yl)benzo[d]isoxazol-6-amine] fall in the same range of pIC50: 6.00 to 6.30 for the first, 6.00 to 6.30 for the second.

First: Cn1ncc2cc(Nc3nc4cccc(NC5CCOCC5)n4n3)ccc21 [Example 551, N^2-(1-methyl-1H-indazol-5-yl)-N^5-(tetrahydro-2H-pyran-4-yl)-[1,2,4]triazolo[1,5-a]pyridine-2,5-diamine]
Second: c1cc(NC2CCOCC2)n2nc(Nc3ccc(-c4nc[nH]n4)cc3)nc2c1 [Example 565, N^2-(4-(1H-1,2,4-triazol-3-yl)phenyl)-N^5-(tetrahydro-2H-pyran-4-yl)-[1,2,4]triazolo[1,5-a]pyridine-2,5-diamine]
The pIC50 of the first is higher: 6.60 to 11.30 for the first, 5.00 to 6.00 for the second.

Compared with `CN(C)c1cc(-c2cccc3nc(Nc4ccccc4)nn23)ccn1` [Example 446, 5-(2-(dimethylamino)pyridin-4-yl)-N-phenyl-[1,2,4]triazolo[1,5-a]pyridin-2-amine], `c1ccc(Nc2nc3cccc(-c4ccc5nc[nH]c5c4)n3n2)cc1` [Example 514, 5-(1H-benzo[d]imidazol-6-yl)-N-phenyl-[1,2,4]triazolo[1,5-a]pyridin-2-amine] is higher in pIC50: 6.30 to 6.60 for the first, 6.60 to 11.30 for the second. The second is the more potent here.

Compared with `NC(=O)c1ccc(Nc2nc3cccc(N[C@H]4CCCNC4)n3n2)cc1` [Example 483, (S)-4-(5-(piperidin-3-ylamino)-[1,2,4]triazolo[1,5-a]pyridin-2-ylamino)benzamide], `c1cncc(Nc2nc3cccc(N[C@@H]4CCCNC4)n3n2)c1` [Example 434, (R)-N^5-(piperidin-3-yl)-N^2-(pyridin-3-yl)-[1,2,4]triazolo[1,5-a]pyridine-2,5-diamine] is lower in pIC50: 6.60 to 11.30 for the first, 5.00 to 6.00 for the second. The first is the more potent here.

`O[C@H]1CC[C@@H](Nc2cccc3nc(Nc4cnc5cn[nH]c5c4)nn23)CC1` [Example 553, cis-4-(2-(1H-pyrazolo-[4,3-b]pyridin-6-ylamino)-[1,2,4]triazolo[1,5-a]pyridin-5-ylamino)cyclohexanol] and `Cc1ccc(Nc2nc3cccc(N[C@H]4CC[C@@H](O)CC4)n3n2)cn1` [Example 403, cis-4-(2-(6-methylpyridin-3-ylamino)-[1,2,4]triazolo[1,5-a]pyridin-5-ylamino)cyclohexanol] fall in the same range of pIC50: 6.60 to 11.30 for the first, 6.60 to 11.30 for the second.

`NCCOc1cc(Nc2nc3cccc(NC4CCCNC4)n3n2)ccn1` (stereo in doubt) [Example 404, (S)-N^2-(2-(2-aminoethoxy)pyridin-4-yl)-N^5-(piperidin-3-yl)-[1,2,4]triazolo[1,5-a]pyridine-2,5-diamine] and `O[C@H]1CC[C@@H](Nc2cccc3nc(Nc4ccc(-c5nc[nH]n5)cc4)nn23)CC1` [Example 567, cis-4-(2-(4-(1H-1,2,4-triazol-3-yl)phenylamino)-[1,2,4]triazolo[1,5-a]pyrridin-5-ylamino)cyclohexanol] fall in the same range of pIC50: 6.60 to 11.30 for the first, 6.60 to 11.30 for the second.

First: O[C@@H]1CC[C@H](Nc2cccc3nc(Nc4ccc(C(F)(F)F)cc4)nn23)C1 [Example 421, (1R,3S)-3-(2-(4-(trifluoromethyl)phenylamino)-[1,2,4]triazolo[1,5-a]pyridin-5-ylamino)cyclopentanol]
Second: Cc1n[nH]c2cc(Nc3nc4cccc(C(F)(F)C5CCOCC5)n4n3)ccc12 [Example 562, 5-(difluoro(tetrahydro-2H-pyran-4-yl)methyl)-N-(3-methyl-1H-indazol-6-yl)-[1,2,4]triazolo[1,5-a]pyridin-2-amine]
The pIC50 of the first is lower: 6.30 to 6.60 for the first, 6.60 to 11.30 for the second. The second is the more potent here.

First: COc1cc(-c2cccc3nc(Nc4ccc5c(c4)NC(=O)C5(C)C)nn23)ccn1 [Example 559, 6-(5-(2-methoxypyridin-4-yl)-[1,2,4]triazolo[1,5-a]pyridin-2-ylamino)-3,3-dimethylindolin-2-one]
Second: c1ccc(Nc2nc3cccc(-c4ccc5[nH]ncc5c4)n3n2)cc1 [Example 522, 5-(1H-indazol-5-yl)-N-phenyl-[1,2,4]triazolo[1,5-a]pyridin-2-amine]
The pIC50 of the first is higher: 6.60 to 11.30 for the first, 6.00 to 6.30 for the second.

`NCCN1Cc2cc(-c3cccc4nc(Nc5ccccc5)nn34)ccc2C1=O` [Example 494, 2-(2-aminoethyl)-5-(2-(phenylamino)-[1,2,4]triazolo[1,5-a]pyridin-5-yl)isoindolin-1-one] gave a pIC50 of 6.00 to 6.30.

same assay, conditions: activity levels A-D, read-out: Activity Level (IC50 in the Syk HTRF assay)

Compared with `Cc1n[nH]c2cc(Nc3nc4cccc(C(O)C5CCOCC5)n4n3)ccc12` (stereo not shown) [Example 200, (2-(3-methyl-1H-indazol-6-ylamino)-[1,2,4]triazolo[1,5-a]pyridin-5-yl)(tetrahydro-2H-pyran-4-yl)methanol], `Cc1n[nH]c2cc(Nc3nc4cccc(C[C@H]5CC[C@H](O)CC5)n4n3)ccc12` (stereo in doubt) [Example 240, trans-4-((2-(3-methyl-1H-indazol-6-ylamino)-[1,2,4]triazolo[1,5-a]pyridin-5-yl)methyl)cyclohexanol] is higher in pIC50: 6.00 to 6.30 for the first, 6.60 to 11.30 for the second. The second is the more potent here.

Compared with `Oc1ccc(Nc2nc3cccc(N[C@H]4CC[C@@H](O)CC4)n3n2)cn1` [Example 371, cis-5-(5-(4-hydroxycyclohexylamino)-[1,2,4]triazolo[1,5-a]pyridin-2-ylamino)pyridin-2-ol], `O[C@H]1CC[C@@H](Nc2cccc3nc(Nc4ccc(Cl)cc4)nn23)CC1` [Example 353, cis-4-(2-(4-chlorophenylamino)-[1,2,4]triazolo[1,5-a]pyridin-5-ylamino)cyclohexanol] is higher in pIC50: 5.00 to 6.00 for the first, 6.60 to 11.30 for the second.

First: NC(=O)CNCc1cccc2nc(Nc3ccc(C(F)(F)F)cc3)nn12 [Example 290, 2-((2-(4-(trifluoromethyl)phenylamino)-[1,2,4]triazolo[1,5-a]pyridin-5-yl)methylamino)acetamide]
Second: NCCOc1cccc2nc(Nc3ccc(C(F)(F)F)cc3)nn12 [Example 296, 5-(2-aminoethoxy)-N-(4-(trifluoromethyl)phenyl)-[1,2,4]triazolo[1,5-a]pyridin-2-amine]
The pIC50 of the first is higher: 6.60 to 11.30 for the first, 6.00 to 6.30 for the second. The first is the more potent here.

Compared with `OC[C@H]1CCN(Cc2cccc3nc(Nc4ccc(C(F)(F)F)cc4)nn23)C1` [Example 324, (S)-(1-((2-(4-(trifluoromethyl)phenylamino)-[1,2,4]triazolo[1,5-a]pyridin-5-yl)methyl)pyrrolidin-3-yl)methanol], `FC(F)(F)c1ccc(Nc2nc3cccc(CC4CCNCC4)n3n2)cc1` [Example 395, 5-(piperidin-4-ylmethyl)-N-(4-(trifluoromethyl)phenyl)-[1,2,4]triazolo[1,5-a]pyridin-2-amine] is higher in pIC50: 5.00 to 6.00 for the first, 6.60 to 11.30 for the second. The second is the more potent here.

Compared with `CC(C)Nc1cccc2nc(Nc3ccc(C(F)(F)F)cc3)nn12` [Example 330, N^5-isopropyl-N^2-(4-(trifluoromethyl)phenyl)-[1,2,4]triazolo[1,5-a]pyridin-2,5-diamine], `CNC(=O)c1cccc(Nc2nc3cccc(N[C@H]4CC[C@@H](O)CC4)n3n2)c1` [Example 316, cis-3-(5-(4-hydroxycyclohexylamino)-[1,2,4]triazolo[1,5-a]pyridin-2-ylamino)-N-methylbenzamide] is higher in pIC50: 5.00 to 6.00 for the first, 6.30 to 6.60 for the second. The second is the more potent here.

`CN(C)c1ccc(Nc2nc3cccc(-c4ccc5nc(CO)[nH]c5c4)n3n2)cn1` [Example 298, (6-(2-(6-(dimethylamino)pyridin-3-ylamino)-[1,2,4]triazolo[1,5-a]pyridin-5-yl)-1H-benzo[d]imidazol-2-yl)methanol] gave a pIC50 of 6.60 to 11.30.

same assay, conditions: read-out: Activity Level (Syk HTRF assay IC50)

`Cc1cc(Nc2nc3cccc(Cc4ccnc(O)c4)n3n2)cc2[nH]ncc12` [compound 124, 4-((2-(4-methyl-1H-indazol-6-ylamino)-[1,2,4]triazolo[1,5-a]pyridin-5-yl)methyl)pyridine-2-ol] and `CNC(=O)c1ccc(Nc2nc3cccc(-c4cc(Cl)cc(CCCN)c4)n3n2)cc1` [compound 6, 4-(5-(3-(3-aminopropyl)-5-chlorophenyl)-[1,2,4]triazolo-[1,5-a]pyridin-2-ylamino)-N-methylbenzamide] fall in the same range of pIC50: 6.60 to 11.30 for the first, 6.60 to 11.30 for the second.

First: CN(c1cccc2nc(Nc3ccc4c(c3)NC(=O)C4(C)C)nn12)C1CCOCC1 [Example 158, 3,3-dimethyl-6-(5-(methyl(tetrahydro-2H-pyran-4-yl)amino)-[1,2,4]triazolo[1,5-a]pyridin-2-ylamino)indolin-2-one]
Second: CN1Cc2cc(Nc3nc4cccc(CC5CCOCC5)n4n3)ccc2C1=O [Example 145, 2-methyl-5-(5-((tetrahydro-2H-pyran-4-yl)methyl)-[1,2,4]triazolo[1,5-a]pyridin-2-ylamino)isoinoldin-1-one]
The pIC50 of the first is higher: 6.60 to 11.30 for the first, 6.00 to 6.30 for the second.

`CN1C(=O)C(C)(C)c2ccc(Nc3nc4cccc(CN5CCNC(=O)C5)n4n3)cc21` [Example 136, 1,3,3-trimethyl-6-(5-((3-oxopiperazin-1-yl)methyl)-[1,2,4]triazolo[1,5-a]pyridin-2-ylamino)inolin-2-one] and `Cn1ncc2ccc(Nc3nc4cccc(CC5CCOCC5)n4n3)cc21` [Example 160, N-(1-methyl-1H-indazol-6-yl)-5-((tetrahydro-2H-pyran-4-yl)methyl)-[1,2,4]triazolo[1,5-a]pyridin-2-amine] fall in the same range of pIC50: 6.60 to 11.30 for the first, 6.60 to 11.30 for the second.

Compared with `O=C1Cc2ccc(Nc3nc4cccc(N[C@H]5CC[C@@H](O)CC5)n4n3)cc2N1CCO` [Example 185, cis-6-(5-(4-hydroxycyclohexylamino)-[1,2,4]triazolo[1,5-a]pyridin-2-ylamino)-1-(2-hydroxyethyl)indolin-2-one], `CC(=O)Nc1cccc(-c2cccc3nc(Nc4ccccc4)nn23)c1` [compound 78, N-(3-(2-(phenylamino)-[1,2,4]triazolo[1,5-a]pyridin-5-yl)phenyl)acetamide] is lower in pIC50: 6.30 to 6.60 for the first, 5.00 to 6.00 for the second.

`NC(=O)c1cccc(Nc2nc3cccc(-c4ccccc4)n3n2)c1` [compound 67, 3-(5-phenyl-[1,2,4]triazolo[1,5-a]pyridin-2-ylamino)benzamide] was tested, and the pIC50 was 6.00 to 6.30.
